Assays:
Type in all cases: biochemical
FGFR2 V564F = target: T1, FGFR2 V564F (Homo sapiens, UniProt P21802, V564F); assay: Assay I: inhibitory activity against FGFR mutants (HTRF KinEASE-TK); settings: ATP 10 μM, substrate TK 1 μM
T1 construct: purchased Signalchem F05-12FG
Experimental: (§1) Assay I: Determination of Inhibitory Activity Against FGFR Mutants
(§2) 1. Reagents and Equipment
(§3) 2.1 Preparation of 1× Kinase Reaction Buffer:
(§4) 1× Kinase reaction buffer was formulated with 1× volume of 5× kinase reaction buffer and 4× volume of water; 5 mM MgCl2; and 1 mM DTT.
(§5) 2.3 Screening of Compounds:
(§6) 1. Diluting a compound 4-fold in a dilution plate with DMSO, with a starting compound concentration of 2 mM.
(§7) 2. Diluting the compound 40-fold into 1× kinase reaction buffer and shaking it on a shaker for 20 minutes.
(§8) 5. Adding 1 μl of the compound diluted in buffer to each well, sealing the plate with a sealing membrane and centrifuging the plate at 1000 g for 30 seconds and leaving it at room temperature for 10 minutes.
(§9) 6. Formulating 2.5×TK-substrate-biotin and ATP mixture with 1× enzyme reaction buffer and adding 2 μl of K-substrate-biotin/ATP mixture to the reaction plate.
(§10) 7. Sealing the plate with a sealing membrane and centrifuging the plate at 1000 g for 30 seconds and allowing it to react at room temperature for 50 minutes.
(§11) 8. Formulating 4× Sa-XL 665 (250 nM) with HTRF assay buffer.
(§12) 9. Adding 5 μl Sa-XL 665 and 5 μl TK-Antibody-Cryptate to each well, centrifuging it at 1000 g for 30 seconds, and allowing it to react for 1 hour at room temperature.
(§13) 10. Reading fluorescence signals at 615 nm (Cryptate) and 665 nm (XL665) with Biotek.
(§14) 3.1 Calculation of the ratio for each well: the ratio was calculated as 665/615 nm.
(§15) 3.3 Calculation of IC50 and plotting of inhibition curves for the compounds.
(§16) The IC50 (half inhibition concentration) of a compound was obtained using the following non-linear fitting equation, wherein data analysis was performed using Graphpad 6.0 software.
(§17) Y=Bottom+(Top−Bottom)/(1+10^((Log IC50−X)*Hill Slope)) • X: log value of compound concentration; and Y: inhibition rate (% inh)
(§18) 3.4 Validation of Results
(§19) Data were exported from Envision and analyzed manually. The ratios were converted to inhibition rates and IC50 was calculated by Prism GraphPad 6.0 from the inhibition rates. IC50 was calculated again by the ratios to verify accuracy of the results.

FGFR1 V561M = target: T2, FGFR1 V561M (Homo sapiens, UniProt P11362, V561M); assay: as above; settings: ATP 5 μM, substrate TK 1 μM
T2 construct: purchased Signalchem F04-13G
T2 sequence (P11362 22-822 V561M): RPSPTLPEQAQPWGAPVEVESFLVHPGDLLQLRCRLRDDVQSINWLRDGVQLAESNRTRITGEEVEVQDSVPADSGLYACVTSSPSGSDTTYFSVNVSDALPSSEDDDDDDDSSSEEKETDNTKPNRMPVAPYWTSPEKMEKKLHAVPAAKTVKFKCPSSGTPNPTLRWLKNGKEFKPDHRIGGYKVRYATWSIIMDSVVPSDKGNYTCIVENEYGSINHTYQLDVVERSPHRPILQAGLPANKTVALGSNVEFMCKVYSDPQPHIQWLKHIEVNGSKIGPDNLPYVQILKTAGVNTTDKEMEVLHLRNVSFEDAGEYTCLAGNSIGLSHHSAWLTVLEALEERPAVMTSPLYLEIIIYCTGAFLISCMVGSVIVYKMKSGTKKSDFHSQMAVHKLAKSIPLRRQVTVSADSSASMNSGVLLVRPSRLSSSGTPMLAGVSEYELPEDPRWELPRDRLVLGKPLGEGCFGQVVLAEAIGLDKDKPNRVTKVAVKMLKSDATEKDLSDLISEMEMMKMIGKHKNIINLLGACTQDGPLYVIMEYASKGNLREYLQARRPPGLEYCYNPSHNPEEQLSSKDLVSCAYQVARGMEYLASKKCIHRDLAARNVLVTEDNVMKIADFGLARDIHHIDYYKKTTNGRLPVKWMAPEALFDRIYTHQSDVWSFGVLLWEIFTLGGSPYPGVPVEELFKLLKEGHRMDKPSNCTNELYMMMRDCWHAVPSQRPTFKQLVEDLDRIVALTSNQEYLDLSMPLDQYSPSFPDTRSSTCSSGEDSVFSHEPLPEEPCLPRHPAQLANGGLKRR
Experimental: as §1, §2, §3, §4, §5, §6, §7, §8, §9, §10, §11, §12, §13, §14, §15, §16, §17, §18, §19

FGFR3 V555M = target: T3, FGFR3 V555M (Homo sapiens, UniProt P22607, V555M); assay: as above; settings: ATP 20 μM, substrate TK 1 μM
T3 construct: purchased Signalchem F06-12GG
T3 sequence (P22607 397-806 V555M limits assumed): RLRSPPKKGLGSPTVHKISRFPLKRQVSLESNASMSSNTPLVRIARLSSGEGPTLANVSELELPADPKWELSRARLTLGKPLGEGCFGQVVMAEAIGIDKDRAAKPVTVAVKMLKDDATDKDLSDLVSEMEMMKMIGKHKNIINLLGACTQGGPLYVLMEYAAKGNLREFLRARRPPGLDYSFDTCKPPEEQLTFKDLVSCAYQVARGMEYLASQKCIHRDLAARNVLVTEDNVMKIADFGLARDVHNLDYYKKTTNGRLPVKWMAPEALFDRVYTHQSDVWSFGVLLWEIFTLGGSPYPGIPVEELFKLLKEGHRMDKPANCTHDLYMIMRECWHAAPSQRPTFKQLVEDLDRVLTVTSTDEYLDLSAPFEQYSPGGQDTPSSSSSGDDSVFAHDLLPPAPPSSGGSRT
Experimental: as §1, §2, §3, §4, §5, §6, §7, §8, §9, §10, §11, §12, §13, §14, §15, §16, §17, §18, §19

VEGFR2 = target: T4, VEGFR2 (Homo sapiens, UniProt P35968); assay: Assay I: VEGFR2 kinase inhibition (HTRF KinEASE-TK); settings: ATP 5 μM, substrate TK 1 μM
T4 construct: purchased Carna 08-191
T4 sequence (P35968 20-1356): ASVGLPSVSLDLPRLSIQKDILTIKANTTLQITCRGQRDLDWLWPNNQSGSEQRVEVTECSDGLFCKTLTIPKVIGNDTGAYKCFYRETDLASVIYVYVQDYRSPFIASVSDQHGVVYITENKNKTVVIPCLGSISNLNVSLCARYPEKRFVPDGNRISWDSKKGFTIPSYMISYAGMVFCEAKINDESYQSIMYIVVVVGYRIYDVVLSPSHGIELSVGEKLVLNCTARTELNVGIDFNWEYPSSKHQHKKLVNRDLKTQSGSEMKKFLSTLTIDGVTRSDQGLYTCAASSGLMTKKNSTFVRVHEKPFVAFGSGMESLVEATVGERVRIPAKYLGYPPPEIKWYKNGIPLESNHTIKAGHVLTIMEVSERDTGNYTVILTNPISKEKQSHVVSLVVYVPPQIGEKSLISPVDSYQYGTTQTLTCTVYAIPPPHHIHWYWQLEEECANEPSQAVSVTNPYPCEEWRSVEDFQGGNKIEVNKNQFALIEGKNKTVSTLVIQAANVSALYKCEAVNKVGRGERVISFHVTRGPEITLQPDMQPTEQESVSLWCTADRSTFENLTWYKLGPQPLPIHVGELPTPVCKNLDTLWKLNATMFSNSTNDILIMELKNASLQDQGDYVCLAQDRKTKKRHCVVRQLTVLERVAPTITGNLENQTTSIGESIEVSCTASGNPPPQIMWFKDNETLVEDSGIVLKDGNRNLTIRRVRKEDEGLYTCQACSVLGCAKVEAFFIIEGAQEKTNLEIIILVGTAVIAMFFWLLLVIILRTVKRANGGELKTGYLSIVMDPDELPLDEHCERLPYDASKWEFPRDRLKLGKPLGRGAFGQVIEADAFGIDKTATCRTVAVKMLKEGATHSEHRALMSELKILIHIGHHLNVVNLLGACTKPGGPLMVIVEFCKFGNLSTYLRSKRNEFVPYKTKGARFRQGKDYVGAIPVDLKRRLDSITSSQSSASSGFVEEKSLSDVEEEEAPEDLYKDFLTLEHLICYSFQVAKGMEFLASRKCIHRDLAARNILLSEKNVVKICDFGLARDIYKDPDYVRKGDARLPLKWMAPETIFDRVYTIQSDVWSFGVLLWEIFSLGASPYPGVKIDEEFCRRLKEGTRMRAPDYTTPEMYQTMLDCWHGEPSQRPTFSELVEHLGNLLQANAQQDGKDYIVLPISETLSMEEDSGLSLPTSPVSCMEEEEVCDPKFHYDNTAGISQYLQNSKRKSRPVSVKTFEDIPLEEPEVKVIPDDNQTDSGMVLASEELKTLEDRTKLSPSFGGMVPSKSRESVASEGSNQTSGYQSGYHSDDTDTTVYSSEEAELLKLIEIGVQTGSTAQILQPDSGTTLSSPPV
Experimental: as §1, §2, §3, §4, §5, §6, §7
3. Formulating 2×FGFR1 V561M/FGFR2 V564F/FGFR3 K650E/VEGFR2 with 1× of enzyme reaction buffer.
4. Adding 2 μl FGFR1 V561M/FGFR2 V564F/FGFR3 K650E/VEGFR2 kinase (formulated in step 3) to each well of the reaction plate.
as §8, §9, §10, §11, §12, §13, §14, §15, §16, §17, §18, §19
Positive control IC50 was within 3 times of the average value

T1 sequence (P21802 22-821 V564F): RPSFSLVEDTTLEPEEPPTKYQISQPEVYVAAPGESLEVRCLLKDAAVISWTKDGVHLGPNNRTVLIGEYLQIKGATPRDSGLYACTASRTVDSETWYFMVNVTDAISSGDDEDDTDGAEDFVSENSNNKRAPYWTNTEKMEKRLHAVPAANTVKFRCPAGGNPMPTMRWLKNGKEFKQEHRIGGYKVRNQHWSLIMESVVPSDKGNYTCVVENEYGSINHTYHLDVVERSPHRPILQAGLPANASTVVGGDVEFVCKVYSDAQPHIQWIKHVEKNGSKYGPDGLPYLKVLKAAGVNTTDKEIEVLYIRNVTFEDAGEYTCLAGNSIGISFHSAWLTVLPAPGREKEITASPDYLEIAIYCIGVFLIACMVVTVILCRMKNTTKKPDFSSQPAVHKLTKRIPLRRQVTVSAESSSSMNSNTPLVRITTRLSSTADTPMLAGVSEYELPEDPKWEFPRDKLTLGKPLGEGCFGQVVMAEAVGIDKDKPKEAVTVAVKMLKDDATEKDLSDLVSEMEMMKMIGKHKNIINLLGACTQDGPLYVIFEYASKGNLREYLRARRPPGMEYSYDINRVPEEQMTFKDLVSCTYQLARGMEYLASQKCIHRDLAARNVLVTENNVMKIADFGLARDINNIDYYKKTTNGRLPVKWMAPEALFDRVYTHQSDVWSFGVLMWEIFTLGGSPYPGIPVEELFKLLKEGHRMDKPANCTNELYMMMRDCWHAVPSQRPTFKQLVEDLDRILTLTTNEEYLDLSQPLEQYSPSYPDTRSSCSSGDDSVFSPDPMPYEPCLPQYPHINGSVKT

Row | SMILES | IC50 (FGFR2 V564F) | IC50 (FGFR1 V561M) | IC50 (FGFR3 V555M) | IC50 (VEGFR2)
1 | CC(Oc1ccc2[nH]nc(-c3nc4c([nH]3)CN(CC3CCN(C)CC3)C4)c2c1)c1c(Cl)cncc1Cl (stereo not drawn) [Compound 2, 5-(1-(3,5-dichloropyridin-4-yl)ethoxy)-3-(5-((1-methylpiperidin-4-yl)methyl)-1,4,5,6-tetrahydropyrrolo[3,4-d]imidazol-2-yl)-1H-indazole] | 0.1 nM | 0.21 nM | 0.05 nM | 2.6 nM
2 | CC(Oc1ccc2[nH]nc(-c3nc4c([nH]3)CN(C3CCN(C)CC3)C4)c2c1)c1c(Cl)cncc1Cl (stereo not drawn) [Compound 3, 5-(1-(3,5-dichloropyridin-4-yl)ethoxy)-3-(5-(1-methylpiperidin-4-yl)-1,4,5,6-tetrahydropyrrolo[3,4-d]imidazol-2-yl)-1H-indazole] | 0.25 nM | 0.65 nM | 0.67 nM | 5.4 nM
3 | CC(Oc1ccc2[nH]nc(-c3nc4c([nH]3)CN(C3CCN(C)CC3)CC4)c2c1)c1c(Cl)cncc1Cl (stereo not drawn) [Compound 4, 2-(5-(1-(3,5-dichloropyridin-4-yl)ethoxy)-1H-indazol-3-yl)-5-(1-methylpiperidin-4-yl)-4,5,6,7-tetrahydro-3H-imidazo[4,5-c]pyridine] | 0.19 nM | 0.31 nM | 0.16 nM | 17.6 nM
4 | CC(Oc1ccc2[nH]nc(-c3nc4c([nH]3)CN(C(=O)C3CCN(C)CC3)C4)c2c1)c1c(Cl)cncc1Cl (stereo not drawn) [Compound 6, (2-(5-(1-(3,5-dichloropyridin-4-yl)ethoxy)-1H-indazol-3-yl)-4,6-dihydropyrrolo[3,4-d]imidazol-5(1H)-yl)(1-methylpiperidin-4-yl)ketone] | 0.11 nM | 0.38 nM | 0.12 nM | 3.1 nM
5 | CC(Oc1ccc2[nH]nc(-c3nc4c([nH]3)CN(S(=O)(=O)c3cccnc3)C4)c2c1)c1c(Cl)cncc1Cl (stereo not drawn) [Compound 7, 5-(1-(3,5-dichloropyridin-4-yl)ethoxy)-3-(5-(pyridin-3-ylsulfonyl)-1,4,5,6-tetrahydropyrrolo[3,4-d]imidazol-2-yl)-1H-indazole] | 3.1 nM | 1.6 nM | 4 nM | 42.9 nM
6 | CC(Oc1ccc2[nH]nc(-c3nc4c([nH]3)CN(C(=O)[C@@H]3CCNC3)C4)c2c1)c1c(Cl)cncc1Cl (stereo partly drawn) [Compound 9, (2-(5-(1-(3,5-dichloropyridin-4-yl)ethoxy)-1H-indazol-3-yl)-4,6-dihydropyrrolo[3,4-d]imidazol-5(1H)-yl)((R)-pyrrolidin-3-yl)ketone] | 0.27 nM | 0.41 nM | 0.16 nM | 5.6 nM
7 | CC(Oc1ccc2[nH]nc(-c3nc4c([nH]3)CN(CCN3CCOCC3)C4)c2c1)c1c(Cl)cncc1Cl (stereo not drawn) [Compound 12] | 0.29 nM | 1.2 nM | 0.21 nM | 14.2 nM
8 | CC(Oc1ccc2[nH]nc(-c3nc4c([nH]3)CN(C(=O)CN3CCOCC3)C4)c2c1)c1c(Cl)cncc1Cl (stereo not drawn) [Compound 13, 1-(2-(5-(1-(3,5-dichloropyridin-4-yl)ethoxy)-1H-indazol-3-yl)-4,6-dihydropyrrolo[3,4-d]imidazol-5(1H)-yl)-2-morpholinoethan-1-one] | 0.31 nM | 0.46 nM | 0.22 nM | 5.5 nM
9 | CC(Oc1ccc2[nH]nc(-c3nc4c([nH]3)CN(C(=O)CN(C)C)C4)c2c1)c1c(Cl)cncc1Cl (stereo not drawn) [Compound 14, 1-(2-(5-(1-(3,5-dichloropyridin-4-yl)ethoxy)-1H-indazol-3-yl)-4,6-dihydropyrrolo[3,4-d]imidazol-5(1H)-yl)-2-(dimethylamino)ethan-1-one] | 0.09 nM | 0.11 nM | 0.03 nM | 6.1 nM
10 | CC(Oc1ccc2[nH]nc(-c3nc4c([nH]3)CN(CCO)C4)c2c1)c1c(Cl)cncc1Cl (stereo not drawn) [Compound 15, 2-(2-(5-(1-(3,5-dichloropyridin-4-yl)ethoxy)-1H-indazol-3-yl)-4,6-dihydropyrrolo[3,4-d]imidazol-5(1H)-yl)ethan-1-ol] | 2 nM | 3.6 nM | 2 nM | 67 nM
11 | CC(Oc1ccc2[nH]nc(-c3nc4c([nH]3)CN(S(C)(=O)=O)C4)c2c1)c1c(Cl)cncc1Cl (stereo not drawn) [Compound 16, 5-(1-(3,5-dichloropyridin-4-yl)ethoxy)-3-(5-(methylsulfonyl)-1,4,5,6-tetrahydropyrrolo[3,4-d]imidazol-2-yl)-1H-indazole] | 0.22 nM | 0.39 nM | 0.35 nM | 22.1 nM

Second part, the molecule after the results:

Row | IC50 (FGFR2 V564F) | IC50 (FGFR1 V561M) | IC50 (FGFR3 V555M) | IC50 (VEGFR2) | SMILES
12 | 0.74 nM | 1.2 nM | 0.21 nM | 49 nM | COC(=O)N1Cc2nc(-c3n[nH]c4ccc(OC(C)c5c(Cl)cncc5Cl)cc34)[nH]c2C1 (stereo not drawn) [Compound 17, Methyl 2-(5-(1-(3,5-dichloropyridin-4-yl)ethoxy)-1H-indazol-3-yl)-4,6-dihydropyrrolo[3,4-d]imidazole-5(1H)-carboxylate]
13 | 1.2 nM | 2.2 nM | – | 19.6 nM | CC(Oc1ccc2[nH]nc(-c3nc4c([nH]3)CN(S(=O)(=O)c3cnn(C)c3)C4)c2c1)c1c(Cl)cncc1Cl (stereo not drawn) [Compound 18, 5-(1-(3,5-dichloropyridin-4-yl)ethoxy)-3-(5-((1-methyl-1H-pyrazol-4-yl)sulfonyl)-1,4,5,6-tetrahydropyrrolo[3,4-d]imidazol-2-yl)-1H-indazole]
14 | 0.59 nM | 0.6 nM | 0.76 nM | 31 nM | CC(Oc1ccc2[nH]nc(-c3nc4c([nH]3)CNC4)c2c1)c1c(Cl)cncc1Cl (stereo not drawn) [Compound 19, 5-(1-(3,5-dichloropyridin-4-yl)ethoxy)-3-(1,4,5,6-tetrahydropyrrolo[3,4-d]imidazol-2-yl)-1H-indazole]
15 | 1.7 nM | 1.8 nM | – | 13.3 nM | CC(Oc1ccc2[nH]nc(-c3nc4c([nH]3)CN(S(=O)(=O)c3ccn(C)n3)C4)c2c1)c1c(Cl)cncc1Cl (stereo not drawn) [Compound 20, 5-(1-(3,5-dichloropyridin-4-yl)ethoxy)-3-(5-((1-methyl-1H-pyrazol-3-yl)sulfonyl)-1,4,5,6-tetrahydropyrrolo[3,4-d]imidazol-2-yl)-1H-indazole]
16 | 0.66 nM | 0.97 nM | 0.64 nM | 26 nM | CC(Oc1ccc2[nH]nc(-c3nc4c([nH]3)CN(C3CC(O)C3)C4)c2c1)c1c(Cl)cncc1Cl (stereo not drawn) [Compound 21, 3-(2-(5-(1-(3,5-dichloropyridin-4-yl)ethoxy)-1H-indazol-3-yl)-4,6-dihydropyrrolo[3,4-d]imidazol-5(1H)-yl)cyclobutan-1-ol]
17 | 1.3 nM | – | 1.4 nM | 60.5 nM | C[C@@H](Oc1ccc2[nH]nc(-c3nc4c([nH]3)CN(C3CCN(S(C)(=O)=O)C3)C4)c2c1)c1c(Cl)cncc1Cl (stereo partly drawn) [Compound 39, 5-((R)-1-(3,5-Dichloropyridin-4-yl)ethoxy)-3-(5-(1-(methylsulfonyl)pyrrolidin-3-yl)-1,4,5,6-tetrahydropyrrolo[3,4-d]imidazol-2-yl)-1H-indazole]
18 | 0.084 nM | – | 0.33 nM | 11.1 nM | C[C@@H](Oc1ccc2[nH]nc(-c3nc4c([nH]3)CN(C(=O)CN3CCC(F)C3)C4)c2c1)c1c(Cl)cncc1Cl (stereo partly drawn) [Compound 48, 1-(2-(5-((R)-1-(3,5-Dichloropyridin-4-yl)ethoxy)-1H-indazol-3-yl)-4,6-dihydropyrrolo[3,4-d]imidazol-5(1H)-yl)-2-(3-fluoropyrrolidin-1-yl)ethan-1-one]
19 | 0.017 nM | – | 0.19 nM | 6.7 nM | C[C@@H](Oc1ccc2[nH]nc(-c3nc4c([nH]3)CN(C(=O)CN3CCC(C#N)C3)C4)c2c1)c1c(Cl)cncc1Cl (stereo partly drawn) [Compound 49, 1-(2-(2-(5-((R)-1-(3,5-dichloropyridin-4-yl)ethoxy)-1H-indazol-3-yl)-4,6-dihydropyrrolo[3,4-d]imidazol-5(1H)-yl)-2-oxoethyl)pyrrolidine-3-carbonitrile]
20 | – | – | – | 99 nM | CCN1CCN(c2ccc(Nc3cc(N(C)C(=O)Nc4c(Cl)c(OC)cc(OC)c4Cl)ncn3)cc2)CC1 [Infigratinib, reference compound]
